{"source": "patent US11834424B2", "about": "“Compounds useful as chaperone-mediated autophagy modulators” (ALBERT EINSTEIN COLLEGE OF MEDICINE, priority 2018, dated 2023)", "assay": "Pharmacokinetics (plasma and brain levels) in ICR (CD-1) mice", "assay_type": "in vivo", "details": "i.v. 1 mg/kg; for Conc. in brain, individual animal / concentration at 0.083 h / concentration at 0.25 h / concentration at 0.5 h / concentration at 1 h / concentration at 2 h / concentration at 4 h / concentration at 8 h: mouse brain; for Conc. in plasma, individual animal: mouse plasma; for Brain/Plasma ratio, individual animal / concentration at 0.083 h / concentration at 0.25 h / concentration at 0.5 h / concentration at 1 h / concentration at 2 h / concentration at 4 h / concentration at 8 h: mouse; for concentration at 0.083 h / concentration at 0.25 h / concentration at 0.5 h / concentration at 1 h / concentration at 2 h / concentration at 4 h / concentration at 8 h: male, ICR (CD-1), brain, iv", "procedure": "ICR (CD-1) male mice were fasted at least three horns and water was available ad libitum before the study. Animals were housed in a controlled environment, target conditions: temperature 18 to 29° C., relative humidity 30 to 70%. Temperature and relative humidity was monitored daily. An electronic time controlled lighting system was used to provide a 12 h light/12 h dark cycle. 3 mice for each indicated time point. ICR (CD-1) mice were administered CA77 at 1 mg/kg i.v. and 30 mg/kg p.o. or CA77.1 at 1 mg/kg i.v. (FIG. 2A) and 10 mg/kg p.o. (FIG. 2B). Three (3) mice were included in each dosage and time group. Mice were sacrificed and plasma and brains were obtained at 0.083, 0.25, 0.50, 1.0, 2.0, 4.0, 8.0, and 24.0 hours after administration and drug concentration determined using LC-MS/MS. Brains were removed, homogenized with a tissue homogenizer in cold 5% w/v BSA in phosphate buffer saline (PBS). A 100 microliter aliquots of brain samples were dispensed in to glass culture tubes and mixed with ethyl acetate (800 μl), vortexed, and centrifuged. The organic layer was transferred to a fresh culture tube, dried under nitrogen, and reconstituted in mobile phase for quantitation. Pharmacokinetic parameters were determined by standard methods using Phoenix WinNonlin 6.3 software.\nTables 3A and 3B provide the concentrations of CA77 in ICR (CD-1) mouse plasma (3A) and mouse brain (3B) following i.v. administration of 1 mg/kg CA77. Table 3C provides the brain/plasma ratio of CA77 following i.v. administration of 1 mg/kg CA77. Shaded cells indicate data not included in statistics due to aberrant value. BLQ=Below Limit of Quantitation.\nTables 5A and 5B provide the concentrations of CA77.1 in ICR (CD-1) mouse plasma (5A) and mouse brain (5B) following i.v. administration of 1 mg/kg CA77.1. Table 5C provides the brain/plasma ratio of CA77.1 following i.v. administration of 1 mg/kg CA77.1. The plasma and brain pharmacokinetic parameters for CA77.1 are provided in Table 6. *—cells contain data not present in the statistics.", "note": "Values joined by “and” are separate entries in the source; they are usually repeats but may differ in a detail not shown here. Identical values can stand only once. “Also recorded” adds a separate entry of the source. Like-named read-outs stand apart in the source and are kept apart here.", "data": [{"compound": "CC(=O)Nc1ccc(-c2cnc3cc(Cl)ccc3n2)cc1", "note": "[CA77.1, N-(4-(6-chloroquinoxalin-2-yl)phenyl)acetamide]", "values": [{"measurement": "CL obs", "setting": "ICR (CD-1) mice", "result": 53, "unit": "mL/min/kg"}, {"measurement": "VSS_obs", "setting": "ICR (CD-1) mice", "result": 6.463, "unit": "L/kg"}, {"measurement": "Conc. in brain, individual animal", "setting": "0.083 h, 1 mg/kg", "result": "1171 ng/g and 970 ng/g"}, {"measurement": "Conc. in brain, individual animal", "setting": "0.25 h, 1 mg/kg", "result": "813 ng/g and 691 ng/g"}, {"measurement": "Conc. in brain, individual animal", "setting": "0.50 h, 1 mg/kg", "result": "677 ng/g and 1083 ng/g"}, {"measurement": "Conc. in brain, individual animal", "setting": "1.00 h, 1 mg/kg", "result": "628 ng/g and 781 ng/g"}, {"measurement": "Conc. in brain, individual animal", "setting": "2.00 h, 1 mg/kg", "result": "269 ng/g and 186 ng/g"}, {"measurement": "Conc. in brain, individual animal", "setting": "4.00 h, 1 mg/kg", "result": "13.6 ng/g and 24.9 ng/g"}, {"measurement": "Conc. in brain, individual animal", "setting": "8.00 h, 1 mg/kg", "result": "3.31 ng/g and 3.66 ng/g"}, {"measurement": "Conc. in brain, individual animal", "setting": "24.0 h", "result": 0, "unit": "ng/g"}, {"measurement": "Conc. in plasma, individual animal", "setting": "0.083 h, 1 mg/kg", "result": "178 ng/mL and 214 ng/mL"}, {"measurement": "Conc. in plasma, individual animal", "setting": "0.25 h, 1 mg/kg", "result": "152 ng/mL and 104 ng/mL"}, {"measurement": "Conc. in plasma, individual animal", "setting": "0.50 h, 1 mg/kg", "result": "247 ng/mL and 100 ng/mL and 481 ng/mL"}, {"measurement": "Conc. in plasma, individual animal", "setting": "1.00 h, 1 mg/kg", "result": "79.3 ng/mL and 85.0 ng/mL"}, {"measurement": "Conc. in plasma, individual animal", "setting": "2.00 h, 1 mg/kg", "result": "30.8 ng/mL and 38.5 ng/mL and 69.4 ng/mL"}, {"measurement": "Conc. in plasma, individual animal", "setting": "4.00 h, 1 mg/kg", "result": "3.31 ng/mL and 3.33 ng/mL and 10.2 ng/mL"}, {"measurement": "Conc. in plasma, individual animal", "setting": "8.00 h, 1 mg/kg", "result": "1.43 ng/mL and 1.42 ng/mL"}, {"measurement": "Conc. in plasma, individual animal", "setting": "24.0 h, 1 mg/kg", "result": "*7.61 ng/mL; also recorded: *16.6 ng/mL"}, {"measurement": "Brain/Plasma ratio, individual animal", "setting": "0.083 h, 1 mg/kg", "result": "6.57 and 4.53"}, {"measurement": "Brain/Plasma ratio, individual animal", "setting": "0.25 h, 1 mg/kg", "result": "5.35 and 6.67"}, {"measurement": "Brain/Plasma ratio, individual animal", "setting": "0.50 h, 1 mg/kg", "result": "2.74 and 6.77 and 2.25"}, {"measurement": "Brain/Plasma ratio, individual animal", "setting": "1.00 h, 1 mg/kg", "result": "7.92 and 9.19"}, {"measurement": "Brain/Plasma ratio, individual animal", "setting": "2.00 h, 1 mg/kg", "result": "8.97 and 7.00 and 2.68"}, {"measurement": "Brain/Plasma ratio, individual animal", "setting": "4.00 h, 1 mg/kg", "result": "5.48 and 4.09 and 2.44"}, {"measurement": "Brain/Plasma ratio, individual animal", "setting": "8.00 h, 1 mg/kg", "result": "2.31 and 2.59"}, {"measurement": "concentration at 0.083 h", "setting": "1 mg/kg, 0.083 h, read-out: Conc. in brain, Mean", "result": 1060, "unit": "ng/g"}, {"measurement": "concentration at 0.083 h", "setting": "1 mg/kg, 0.083 h, read-out: Conc. in brain, individual animal", "result": 1030, "unit": "ng/g"}, {"measurement": "concentration at 0.25 h", "setting": "1 mg/kg, 0.25 h, read-out: Conc. in brain, Mean", "result": 789, "unit": "ng/g"}, {"measurement": "concentration at 0.25 h", "setting": "1 mg/kg, 0.25 h, read-out: Conc. in brain, individual animal", "result": 864, "unit": "ng/g"}, {"measurement": "concentration at 0.5 h", "setting": "1 mg/kg, 0.50 h, read-out: Conc. in brain, Mean", "result": 812, "unit": "ng/g"}, {"measurement": "concentration at 0.5 h", "setting": "1 mg/kg, 0.50 h, read-out: Conc. in brain, individual animal", "result": 677, "unit": "ng/g"}, {"measurement": "concentration at 1 h", "setting": "1 mg/kg, 1.00 h, read-out: Conc. in brain, Mean", "result": 669, "unit": "ng/g"}, {"measurement": "concentration at 1 h", "setting": "1 mg/kg, 1.00 h, read-out: Conc. in brain, individual animal", "result": 597, "unit": "ng/g"}, {"measurement": "concentration at 2 h", "setting": "1 mg/kg, 2.00 h, read-out: Conc. in brain, Mean", "result": 244, "unit": "ng/g"}, {"measurement": "concentration at 2 h", "setting": "1 mg/kg, 2.00 h, read-out: Conc. in brain, individual animal", "result": 276, "unit": "ng/g"}, {"measurement": "concentration at 4 h", "setting": "1 mg/kg, 4.00 h, read-out: Conc. in brain, Mean", "result": 19, "unit": "ng/g"}, {"measurement": "concentration at 4 h", "setting": "1 mg/kg, 4.00 h, read-out: Conc. in brain, individual animal", "result": 18.2, "unit": "ng/g"}, {"measurement": "concentration at 8 h", "setting": "1 mg/kg, 8.00 h, read-out: Conc. in brain, Mean", "result": 4, "unit": "ng/g"}, {"measurement": "concentration at 8 h", "setting": "1 mg/kg, 8.00 h, read-out: Conc. in brain, individual animal", "result": 4.92, "unit": "ng/g"}]}]}
